# Target: T1, MyD88^TIR (Homo sapiens, UniProt Q99836)
# T1 construct: MyD88 (residues 148–296); 6xHis; made in house; host or cells: E. coli BL21 (DE3)
# Assay: T‐Surf phage library (P8 and P3) selection against MyD88^TIR, four rounds, NGS read counts
# Assay type: binding
# Settings: for P3_MyD88 Rank (after) / P3_MyD88 Rank (before): P3 library; for Population: 4th round of selection against MyD88 TIR, share of NGS reads; for P8_MyD88 Rank (after) / P8_MyD88 Rank (before): P8 library
# How it was run: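 Coat TIR domain 5 µg mL^−1 overnight; block 0.2% BSA/PBS 1 h, 4 °C; add phage library 1 h, RT; wash ×4 PBS/0.5% Tween‐20; elute 100 mM HCl, neutralize Tris; amplify in TG1, PEG‐precipitate. Repeat to round 4; barcode PCR, NovaSeq, count reads.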
# [1] = 4R selection against MyD88, rank after grouping
# [2] = 4R selection against MyD88, rank before grouping
# [3] = P3_MyD88 pool: P3 T-Surf phage library
# [4] = selection against MyD88, rank after grouping
# [5] = selection against MyD88, rank before grouping
# [6] = P3_MyD88: rank by count after grouping
# [7] = P3_MyD88: rank by count before grouping
# [8] = P8_MyD88: rank by NGS read count after grouping
# [9] = P8_MyD88: rank by NGS read count before grouping
# [10] = P8_MyD88: rank by count after grouping
# [11] = P8_MyD88: rank by count before grouping
# [12] = P8_MyD88 pool: P8 T-Surf phage library
# [13] = selection against MyD88 TIR, rank by count after grouping
# [14] = selection against MyD88 TIR, rank by count before grouping
# [15] = selection against MyD88, rank by count after grouping
# [16] = selection against MyD88, rank by count before grouping
# T1 sequence (Q99836 148-296): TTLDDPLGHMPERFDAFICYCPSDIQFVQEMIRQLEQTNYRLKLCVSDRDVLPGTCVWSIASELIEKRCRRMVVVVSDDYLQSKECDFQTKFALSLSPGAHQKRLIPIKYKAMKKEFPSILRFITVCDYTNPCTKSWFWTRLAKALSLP
sequence,measurement,setting,value
SENMRPARGRWMNWC,P3_MyD88 Rank (after),[1],654
same,P3_MyD88 Rank (before),[2],3000
SSFCEGLWRLLELSKK,Population,[3],0.00437%
KIARCMIFGVFWKAP,P8_MyD88 Rank (after),[4],527
same,P8_MyD88 Rank (before),[5],3897
YAFTGHLHATL,Population,[3],0.00291%
EWIRTAASGAERTSA,Rank (after),[6],388
same,Rank (before),[7],2178
YASNDDNDYYWVTHVRLRHL,Rank (after),[8],1023
same,Rank (before),[9],1909
YYDSRWALDELLKILYANETM,Rank (after),[10],171
same,Rank (before),[11],192
same,Population,[12],0.00617%
DPQDLDLFYERLVRLF,P8_MyD88 Rank (after),[13],261
same,P8_MyD88 Rank (before),[14],2737
MFGGDTFHDFLDLLA,P8_MyD88 Rank (after),[15],690
same,P8_MyD88 Rank (before),[16],3664
KEVEGWRDALTKAANL,Rank (after),[6],138
same,Rank (before),[7],3640
YAASPWWFDELVRIVC,Rank (after),[10],407
same,Rank (before),[11],1723
DIVAYVMQKLMKHQVF,Rank (after),[10],154
same,Rank (before),[11],169
same,Population,[12],0.00848%
SSFLQHPWRLQKLSKK,Rank (after),[6],399
same,Rank (before),[7],3123
NYASSPWALDELVKIF,P8_MyD88 Rank (after),[13],197
same,P8_MyD88 Rank (before),[14],295
DPHQHQAFWDRLWEKL,P8_MyD88 Rank (after),[13],286
same,P8_MyD88 Rank (before),[14],560
KERPFGAQRAEKCVP,Rank (after),[6],447
same,Rank (before),[7],3673
PQDLAWYYVRLVSLIL,P8_MyD88 Rank (after),[1],583
same,P8_MyD88 Rank (before),[2],3423
DLVWDYLLPNLAGPAG,Rank (after),[8],967
same,Rank (before),[9],2386
DPQDLQWFCERLVSLF,P8_MyD88 Rank (after),[13],281
same,P8_MyD88 Rank (before),[14],2908
SSFREGLWRLLELRKN,P3_MyD88 Rank (after),[1],588
same,P3_MyD88 Rank (before),[2],3169
DHHLDLPRGKAIQPDILG,P3_MyD88 Rank (after),[4],554
same,P3_MyD88 Rank (before),[5],2014
WALVKLLKILYANDTM,Rank (after),[8],949
same,Rank (before),[9],1406
LKVESWRQALGKAGKL,Population,[3],0.00349%
LKWGDPYFCSKLRYPM,Rank (after),[6],403
same,Rank (before),[7],2415
SSFREGVWRLLEVSKK,Rank (after),[6],151
same,Rank (before),[7],3148
NELVHVWSSKANSLVGQ,Rank (after),[6],186
same,Rank (before),[7],1250
YSFTGQLHLYLIHRGV,Rank (after),[6],462
same,Rank (before),[7],1433
DPQDLDWFYERLISRILQ,P8_MyD88 Rank (after),[4],549
same,P8_MyD88 Rank (before),[5],2787
PRDLEWLYERLVSLIL,P8_MyD88 Rank (after),[13],278
same,P8_MyD88 Rank (before),[14],3410
NELIDVGHSYSMHRGG,P3_MyD88 Rank (after),[15],743
same,P3_MyD88 Rank (before),[16],3387
DWGWDYLLPQLEGSAG,Rank (after),[8],990
same,Rank (before),[9],2482
YNLISHLYDAMHRNRI,P3_MyD88 Rank (after),[4],549
same,P3_MyD88 Rank (before),[5],1746
DHHLDLPRGKAINRKFW,Rank (after),[6],102
same,Rank (before),[7],355
YTALTNSSFHTFRDNH,P3_MyD88 Rank (after),[4],514
same,P3_MyD88 Rank (before),[5],1697
LKVENWRQALEQAGKL,P3_MyD88 Rank (after),[13],203
same,P3_MyD88 Rank (before),[14],2526
SNFREGLWRLLELSKK,Population,[3],0.00408%
GALDEVRKILYANETM,Rank (after),[8],908
same,Rank (before),[9],2280
YAFTGHLHRYLVQPGESVC,Rank (after),[6],456
same,Rank (before),[7],1515
DPQDLLRFYEHLVSLF,Rank (after),[10],472
same,Rank (before),[11],2901
LKVESWRQALEKAGKLRYAM,P3_MyD88 Rank (after),[15],707
same,P3_MyD88 Rank (before),[16],2496
FHGDELRDNFIRYLVW,P8_MyD88 Rank (after),[13],252
same,P8_MyD88 Rank (before),[14],421
ISFREGLWRLLELSKK,Population,[3],0.00291%
FLSYLALEKRFSPIGQ,P3_MyD88 Rank (after),[4],515
same,P3_MyD88 Rank (before),[5],1343
YLRADDNDYYWVTHVLLRHL,Rank (after),[8],983
same,Rank (before),[9],2070
NELVHVWSSKANTWW,P3_MyD88 Rank (after),[1],628
same,P3_MyD88 Rank (before),[2],3431
LKVESWRQAQEKAGKL,Population,[3],0.00349%
NQCRNALTAAANLSGC,Rank (after),[6],149
same,Rank (before),[7],3467
NELVNVWSSKANSQVG,P3_MyD88 Rank (after),[15],691
same,P3_MyD88 Rank (before),[16],3451
EHHLDLPRGKAIKPAILG,Rank (after),[6],152
same,Rank (before),[7],2117
WILRAIWNSFGIVCI,Rank (after),[10],475
same,Rank (before),[11],1653
DFLLTILEAMKTKNQL,Rank (after),[10],148
same,Rank (before),[11],159
same,Population,[12],0.00925%
NQWRNALTAAANLSGC,Population,[3],0.00291%
DSHESEIIKEIVDTIV,Rank (after),[6],163
same,Rank (before),[7],967
GSFREILLRLLDLSKK,P3_MyD88 Rank (after),[1],671
same,P3_MyD88 Rank (before),[2],1858
DSQSSLLKGEADLVGQ,P3_MyD88 Rank (after),[15],736
same,P3_MyD88 Rank (before),[16],2071
YAASPWWFDELVKTVR,Rank (after),[10],418
same,Rank (before),[11],1762
YASSSWALLELSKIFEAM,Rank (after),[8],994
same,Rank (before),[9],1899
YLQDLDWFYERLVSLF,Rank (after),[10],478
same,Rank (before),[11],2080
LGYQWNDWEYFVGIED,Rank (after),[8],957
same,Rank (before),[9],3326
LGYHWVDWEYCVGIED,Rank (after),[10],479
same,Rank (before),[11],3233
NQWRNALTAAANLIGR,P3_MyD88 Rank (after),[4],532
same,P3_MyD88 Rank (before),[5],3499
RSFREGPWRLLELSKK,Rank (after),[6],414
same,Rank (before),[7],2694
RKGDLISDELRIPLEE,P3_MyD88 Rank (after),[4],526
same,P3_MyD88 Rank (before),[5],2656
YASSWWALEELLRILY,P8_MyD88 Rank (after),[4],568
same,P8_MyD88 Rank (before),[5],1849
NYTSSSWALDEQWNIF,P8_MyD88 Rank (after),[1],653
same,P8_MyD88 Rank (before),[2],3860
WALDELLKILYVIATL,P8_MyD88 Rank (after),[4],525
same,P8_MyD88 Rank (before),[5],1480
DYASSWWALEEMAKIM,Rank (after),[10],177
same,Rank (before),[11],202
ELDFSHFWLFDGQAT,P8_MyD88 Rank (after),[13],218
same,P8_MyD88 Rank (before),[14],358
WALDELWHILRALGLF,P8_MyD88 Rank (after),[1],631
same,P8_MyD88 Rank (before),[2],1426
AFSHWALVELLEAIEQ,P8_MyD88 Rank (after),[13],226
same,P8_MyD88 Rank (before),[14],385
HFETTEGNFYKFFLFF,Rank (after),[10],165
same,Rank (before),[11],187
same,Population,[12],0.00694%
DQHRDLPRGKAIKPEILG,Rank (after),[6],168
same,Rank (before),[7],2067
LGYDWIVWAYFVGIED,Rank (after),[8],894
same,Rank (before),[9],3219
YELDFSHFWLFEGPAG,P8_MyD88 Rank (after),[13],245
same,P8_MyD88 Rank (before),[14],538
TSHLHHAPRPNEIETL,P3_MyD88 Rank (after),[1],653
same,P3_MyD88 Rank (before),[2],3323
NQCRNFLTAAANLSGW,Rank (after),[6],164
same,Rank (before),[7],3465
NQWHNALTAAANLSGW,Population,[3],0.00291%
DPQDLALFYERLVSLF,P8_MyD88 Rank (after),[13],251
same,P8_MyD88 Rank (before),[14],2727

# Source: paper PMC11714206, “Massively Parallel Screening of Toll/Interleukin‐1 Receptor (TIR)‐Derived Peptides Reveals Multiple Toll‐Like Receptors (TLRs)‐Targeting Immunomodulatory Peptides” (Advanced Science, 2024)
